Here are results for 2 compounds from patent publication US10766912B2 (priority 2017, dated 2020).

Data set [1] can be described thus: Assay Example 5: distribution in mouse plasma and liver tissue. Format: in vivo. The note with it: 10 mg/kg intragastric; for Kp at 0.5 h / Kp at 3 h / Kp at 8 h: male, oral, liver/plasma, read-out: Ratio (L/P). As for the experimental part:
(§1) Eighteen male mice were randomly divided into two groups, fasted (free access to water) overnight, and then intragastrically administered with 10 mg/kg of Compound 1a and Compound 6b, respectively. The subject animals were sacrificed by bloodletting at 0.5 h, 3 h and 8 h after administration. About 1 mL of blood was taken, and anticoagulated with EDTA-K2. The blood samples were immediately placed in ice, and then transferred within 30 min to centrifuge and separate plasma at 4° C. and 4,000 rpm for 10 min. Meanwhile, the whole liver was taken out at the various time points, rinsed with ice-cold physiological saline, blotted dry, weighed, and prepared into a homogenate with physiological saline (W/V=1:5). All plasma and liver homogenates were collected and then immediately stored at −20° C. for testing.
The mice can be fed at 4 h after administration.
(§2) After being completely melted, all the samples were vortexed to mix evenly. 50 μL of the samples were pipetted into a 1.5 mL centrifuge tube respectively and then 200 μL of IS-D (20 ng/ml diazepam acetonitrile) solution was added to each sample (200 μL of acetonitrile was added to the blank sample). The samples were vortexed for 10 min and then centrifuged at 12,000 rpm and 4° C. for 10 min. After 80 μL of pure water was added to a 96-well plate, 80 μL of the supernatants were pipetted respectively from the centrifuge tubes to the 96-well plate, vortexed for 3 min, and then kept at 4° C. until LC-MS/MS injection analysis.

Data set [2] in a line: Assay Example 4: distribution in rat plasma and liver tissue. The note with it: 10 mg/kg intragastric; for Kp at 0.5 h / Kp at 3 h / Kp at 8 h: male, oral, liver/plasma, read-out: Ratio (L/P). Format: in vivo. As for the experimental part: as §1, with “rats” for “mice”, “groups of 9 rats each,” for “groups,”
The rats can be fed at 4 h after administration.
as §2, with “then 300” for “then 200”

A short description of data set [3]: Assay Example 3: parallel cytotoxicity assay (alamarBlue) without viral infection. Format: cell-based. As to conditions: human, Huh7.5.1 cells without viral infection, no viral infection, read-out: CC50 Value HCVcc. As for the experimental part: Cells: Huh7.5.1 cells and hepatitis C virus HCVcc (GT2a, JFH-1) infection system.
Treatment of Compound: According to the assay final concentrations of the compounds in Table 6, DMSO stock solutions of the compounds were diluted and then added to a 96-well assay plate. The final concentration of DMSO was 0.5%.
Viral infection: Huh7.5.1 cells were seeded in a 96-well cell culture plate, and the cells were cultured overnight at 37° C. in an incubator with 5% CO2 for later use. The compound and the HCVcc virus solution (MOI=0.1) were simultaneously added to the cells, and the virus infection was cultured for 3 days. Parallel cytotoxicity assay was identical to the method for the inhibition of the virus but without viral infection.
Cell viability assay: Cell viability was detected by the addition of alamarBlue assay reagent. The original data (RFU) was used for the calculation of the cytotoxicity of the compounds.
The cytotoxicity of the compounds was calculated by using the equation below: Cell Viability %=CPD/CC×100%*
The cell viability percentages (Cell Viability %) and the compound activity percentages (Inhibition %) were imported into GraphPad Prism software, respectively, and curves were fitted by using nonlinear regression method to obtain the corresponding curves of the compounds, and the cytotoxicity (CC50) thereof and inhibitory activity (EC50) values against the HCV replicon thereof.

The test system of data set [4] is HCV GT1a wild-type replicon. The data set is described as follows: Assay Example 1: activity against HCV GT1a wild-type replicon. Format: cell-based. As to conditions: Hepatitis C virus, 72 h, Huh 7 cells, 3 days, luciferase. As for the experimental part:
(§3) Cells: Huh 7 cell line and HCV GT1b/3a and GT1b/6a NS5A chimeric replicons and GT1b and GT1a wild-type replicon RNA.
(§4) Treatment of Compound: According to the assay final concentrations of the compounds in Table 2, DMSO stock solutions of the compounds were diluted and then added to a 96-well assay plate. The final concentration of DMSO was 0.5%.
(§5) The preparation of cells: After replicon plasmid DNA was linearized with a corresponding restriction enzyme, the DNA was transcribed into RNA by using T7RNA polymerase. Replicon RNA prepared by transcription in vitro was transfected into Huh-7 cells by electroporation. Transfected cells were seeded at a density of 10,000 cells per well into the 96-well assay plate containing the diluted compounds, and then the plate was placed in a 37° C. incubator with 5% CO2 and cultured for 3 days.
(§6) Drug activity assay: Luminescence signal value (RLU) was detected with Envision within 15 minutes using the luciferase assay reagent Britelite plus, and the original data (RLU) was used for the calculation of the activity of the compounds.
(§7) The activity of the compounds was calculated by using the equation below: Inhibition %=(ZPE−CPD)/(ZPE−HPE)×100%*
(§8) The cell viability percentages (Viability %) and the inhibition percentages (Inhibition %) were imported into GraphPad Prism software, respectively, and curves were fitted by using nonlinear regression method to obtain the corresponding curves of the compounds, and the cytotoxicity (CC50) thereof and inhibitory activity (EC50) values against the HCV replicon thereof.

Data set [5] deals with HCV GT1b/6a NS5A chimeric replicon. The data set is described as follows: Assay Example 1: activity against HCV GT1b/6a NS5A chimeric replicon. Format: cell-based. As to conditions: Hepatitis C virus, Huh-7, 72 h, read-out: EC50 value GT1b/6a NS5A chimeric replicon. The protocol: as §3, §4, §5, §6, §7, §8
A general note: Replicon systems follow genome replication, usually without infectious particles.

The CC50 is the concentration that lowers cell viability or growth by half. As to `COC(=O)N[C@H](C(=O)N1CCC[C@H]1C(=O)Nc1ccc([C@@H]2CC[C@@H](c3ccc(NC(=O)[C@@H]4CCCN4C(=O)[C@@H](NC(=O)OC)[C@@H](C)OC)cc3)N2c2cc(F)c(N3CC[Si](C)(C)CC3)c(F)c2)cc1)[C@@H](C)OC` [Compound 1a, Methyl ((2S,2′S,3R,3′R)-((2S,2′S)-(((((2S,5S)-1-(4-(4,4-dimethylazasilinan-1-yl)-3,5-difluorophenyl)pyrrolidin-2,5-diyl)bis(4,1-phenylene))bis(azanediyl))bis(carbonyl))bis(pyrrolidin-2,1-diyl))bis(3-methoxy-1-oxobutan-1,2-diyl))dicarbamate], the Liver concentration came out at 337 ± 33.1 in data set [1] (0.5 h); 2644 ± 147.3 in data set [1] (3 h); 334 ± 73.9 in data set [1] (8 h); 384 ± 121 in data set [2] (0.5 h); 1711 ± 485 in data set [2] (3 h); 1087 ± 822 in data set [2] (8 h). The Plasma concentration is listed as 139 ± 16.9 in data set [1] (0.5 h); 384 ± 81 in data set [1] (3 h); 59 ± 7.8 in data set [1] (8 h); 54.7 ± 7.82 in data set [2] (0.5 h); 70.1 ± 20.6 in data set [2] (3 h); 59 ± 33.7 in data set [2] (8 h). The Kp at 0.5 h was determined as 2.43 in data set [1] (0.5 h) and 7.01 in data set [2] (0.5 h). Besides, the Kp at 3 h in data set [1] (3 h) turned out to be 6.89; in data set [2] (3 h), 24.4. Besides, the Kp at 8 h in data set [1] (8 h) came out at 5.67; in data set [2] (8 h), 18.4. In addition, the CC50 at 3 days in data set [3] was greater than 100 pM. Besides, the EC50 came to 7.7 pM in data set [4] and 17 pM in data set [5].
In the case of `COC(=O)N[C@H](C(=O)N1CCC[C@H]1C(=O)Nc1ccc([C@H]2CC[C@H](c3ccc4nc([C@@H]5CCCN5C(=O)[C@@H](NC(=O)OC)[C@@H](C)OC)[nH]c4c3)N2c2cc(F)c(N3CC[Si](C)(C)CC3)c(F)c2)cc1)[C@@H](C)OC` [Compound 6b], the Liver concentration was determined as 401 ± 116 in data set [1] (0.5 h); 960 ± 530 in data set [1] (3 h); 18 ± 1 in data set [1] (8 h); 212 ± 57.2 in data set [2] (0.5 h); 495 ± 171 in data set [2] (3 h); 77.5 ± 20.6 in data set [2] (8 h). The Plasma concentration was determined as 226 ± 66 in data set [1] (0.5 h); 464 ± 363.3 in data set [1] (3 h); 10 ± 5.8 in data set [1] (8 h); 19.8 ± 8.31 in data set [2] (0.5 h); 34.8 ± 14.7 in data set [2] (3 h); 5.82 ± 0.99 in data set [2] (8 h). The figures for the Kp at 0.5 h in data set [1] (0.5 h) and in data set [2] (0.5 h) were 1.78 and 10.7, respectively. Moreover, the Kp at 3 h in data set [1] (3 h) is 2.07; in data set [2] (3 h), 14.2. Also, the values for the Kp at 8 h in data set [1] (8 h) and in data set [2] (8 h) were 1.76 and 13.3, respectively. In data set [3], the CC50 at 3 days is greater than 100 pM. Moreover, the EC50 in data set [4] amounted to 6.2 pM; in data set [5], 5.4 pM.
